Results as given in ChEMBL document CHEMBL1124647, “Conformational analysis and molecular modeling of 1-phenyl-, 4-phenyl-, and 1-benzyl-1,2,3,4-tetrahydroisoquinolines as D1 dopamine receptor ligands” (J Med Chem, 1989).

Tests used:
[1] = target: D(1A) dopamine receptor (Homo sapiens, UniProt P21728); experiment: Binding potency of compound for Dopamine receptor D1 by displacing [3H]SCH-23390 radioligand
[2] = DSAC inhibitory potency obtained by the conversion of [32P]-ATP to [32P]-cAMP
[3] = target: D(2) dopamine receptor (Homo sapiens, UniProt P14416); experiment: Binding potency of compound for Dopamine receptor D2 by displacement of [3H]spiperone
D(2) dopamine receptor, sequence (P14416 whole entry): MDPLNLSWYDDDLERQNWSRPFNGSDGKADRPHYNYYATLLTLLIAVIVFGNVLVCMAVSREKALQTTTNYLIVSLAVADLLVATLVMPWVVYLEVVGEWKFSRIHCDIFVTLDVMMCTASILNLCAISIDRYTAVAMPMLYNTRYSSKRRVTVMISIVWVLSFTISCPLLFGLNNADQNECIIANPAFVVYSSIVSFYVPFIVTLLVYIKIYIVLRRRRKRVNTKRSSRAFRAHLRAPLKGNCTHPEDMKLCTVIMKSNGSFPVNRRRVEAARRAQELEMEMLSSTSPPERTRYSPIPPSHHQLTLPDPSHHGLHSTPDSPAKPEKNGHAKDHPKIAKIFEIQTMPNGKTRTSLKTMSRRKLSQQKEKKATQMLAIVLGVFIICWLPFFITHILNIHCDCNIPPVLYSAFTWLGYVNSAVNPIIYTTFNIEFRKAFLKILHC

D(1A) dopamine receptor, sequence (P21728 whole entry): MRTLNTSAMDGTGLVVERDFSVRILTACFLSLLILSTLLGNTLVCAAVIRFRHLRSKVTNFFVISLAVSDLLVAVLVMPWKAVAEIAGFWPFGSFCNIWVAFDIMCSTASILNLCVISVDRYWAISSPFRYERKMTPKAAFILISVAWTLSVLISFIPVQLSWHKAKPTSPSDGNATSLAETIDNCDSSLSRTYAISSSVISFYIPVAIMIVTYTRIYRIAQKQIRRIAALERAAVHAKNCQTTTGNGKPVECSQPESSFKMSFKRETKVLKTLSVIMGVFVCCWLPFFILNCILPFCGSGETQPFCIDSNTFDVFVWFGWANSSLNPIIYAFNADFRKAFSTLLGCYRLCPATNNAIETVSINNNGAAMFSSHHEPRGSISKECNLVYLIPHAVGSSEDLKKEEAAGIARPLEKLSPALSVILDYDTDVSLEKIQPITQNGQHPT

## CN1CCc2cc(Cl)c(O)cc2[C@H]1c1ccccc1
[1]
  Ki: 447 nM
[2]
  Log Ki: -6.25
[3]
  Ki: 19100 nM

## CCCN1CCc2cc(Cl)c(O)cc2[C@@H]1c1ccccc1
[1]
  Ki: 178 nM
[2]
  Log Ki: -6.69
[3]
  Ki: 1910 nM

## CN1Cc2cc(Cl)c(O)cc2[C@H](c2ccccc2)C1
[1]
  Ki: 87.1 nM
[2]
  Log Ki: -6.99
[3]
  Ki: 263 nM

## CN1CCc2cc(Cl)c(O)cc2[C@@H]1c1ccccc1
[1]
  Ki: 6.61 nM
[2]
  Log Ki: -8.18
[3]
  Ki: 1860 nM

## Oc1cc2c(cc1Cl)CNC[C@H]2c1ccccc1
[1]
  Ki: 282 nM
[2]
  Log Ki: -6.2
[3]
  Ki: 1820 nM

## CN1CCc2cc(Cl)c(O)cc2[C@@H]1Cc1ccccc1
[1]
  Ki: 26.9 nM
[2]
  Log Ki: -8.2
[3]
  Ki: 145 nM

## Oc1cc2c(cc1Cl)CCN[C@H]2c1ccccc1
[1]
  Ki: 141 nM
[2]
  Log Ki: -6.96
[3]
  Ki: 3720 nM

## CN1CCc2cc(Cl)c(O)cc2[C@@H](c2ccccc2)C1 [SCH-23390]
[2]
  Log Ki: -9.33
